# Results: patent EP2241312A1, “Use of compositions comprising urea for treating microbial infections” (ISDIN S.A., priority 2009, dated 2010)
# Values joined by “and” are separate entries in the source; they are usually repeats but may differ in a detail not shown here. Equal values may be shown once. Read-outs that look alike come from different tables or passages of the source.
# Key:
# [1] = tested on: LL-37; test: LL-37 gene expression in subconfluent primary human keratinocytes after urea stimulation (real time PCR); assay type: cell-based; conditions: 10mM urea, compared to untreated control cells; for relative gene expression level LL-37: 10000 µM; for fold induction at 10000 µM: Homo sapiens, Keratinocyte, read-out: relative gene expression level LL-37
# Experimental: (§1) Primary human epidermal keratinocytes were prepared from neonatal foreskin as described previously (Grether-Beck et al, 1996, 2000, 2003, 2005, 2008) and maintained in culture under serum free conditions using a defined keratinocyte growth medium Keratinocyte SFM (Invitrogen, Heidelberg, Germany) supplemented with bovine pituitary extract (Invitrogen, Heidelberg, Germany) and recombinant epidermal growth factor (Invitrogen, Heidelberg, Germany). Cells were propagated up to passage 2 or 3 at 37°C and 5 % CO2 (Grether-Beck et al, 1996, 2000, 2003, 2005, 2008). For induction of differentiation NHEKs were seeded in 6well plates and grown up to confluence.
# (§2) For assessment of gene expression total RNA was extracted from frozen biopsies (Ø 4 mm) and gene expression measured by semiquantitative RT-PCR. For isolation of RNA from frozen skin biopsies, 600 µl lysis buffer from PeqGold Total RNA Kit (PeqLab, Erlangen, Germany) were added and the samples were disrupted in a MixerMill MM300 (Retsch, Haan, Germany) three times for 3 min with 30 Hz. 50 ng total RNA were used for cDNA synthesis. PCR reactions were performed in an Opticon 1 (MJ Research, Waltham, MA, USA) using Sybr QPCR Supermix w. Rox (Invitrogen, Karlsruhe, Germany). PCR conditions were as follows: activation of hot start taq polymerase 94° C 15 minutes; denaturation 95° C, 20 seconds; annealing, 55° C, 20 seconds; extension, 72° C 30 seconds. Each sample was subjected to PCR in double using the appropriate primer pairs for 45-50 cycles. For comparison of relative expression in real time PCR control cells and treated cells the 2 (-della delta C(T)) method was used (Livak KJ, and Schmittgen TD. Analysis of relative gene expression data using real time quantitative PCR and the 2 (-delta delta C(T)) method. Methods 2001: 25: 402 - 408). mRNA expression of the genes of interest was shown as fold induction as compared to untreated skin samples of the same volunteer. Table 1: Primer pairs for real time PCR
# (§3) For determination of relative gene expression in real time PCT the 2(-delta delta C(T))-method was used as described in Livak and Schmittgen (2001) "Analysis of relative gene expression data using real time quantitative PCR and the 2 (-delta delta C(T))-method" Methods 25: 401-408. For statistical analysis, the experimental data were analyzed using the Wilcoxon signed-rank test.
# (§4) HNKs were stimulated with 10mM urea for the indicated time points (3h, 6h, 12h, 24h) and processed for RNA analysis (1). Data are the result of a set of three samples for the control and two samples in parallel for the urea stimulated ones. Table 2 indicates the relative gene expression levels after stimulation with urea as compared to untreated contol cells. […] Table 3 indicates the data depicted in Figure 2. [formula] Table 2: Expression of antimicrobial peptides in human keratinocytes after stimulation with urea at different time points after induction.
# [2] = tested on: Humpsor; test: cells; assay type: cell-based, human; conditions: for fold induction at 10000 µM: Homo sapiens, Keratinocyte
# Experimental: as §1, §2, §3, §4
# [3] = tested on: HBD1; test: cells; assay type: cell-based, human; conditions: for fold induction at 10000 µM: Homo sapiens, Keratinocyte; for relative gene expression level HBD1: primary keratinocytes, 10000 µM
# Experimental: as §1, §2, §3, §4
# [4] = tested on: HBD3; test: cells; assay type: cell-based, human; conditions: for fold induction at 10000 µM: Homo sapiens, Keratinocyte; for relative gene expression level HBD3: primary keratinocytes, 10000 µM
# Experimental: as §1, §2, §3, §4
# [5] = tested on: HBD2; test: cells; assay type: cell-based, human; conditions: for fold induction at 10000 µM: Homo sapiens, Keratinocyte
# Experimental: as §1, §2, §3, §4
# [6] = tested on: LL-37; test: LL-37 expression in confluent human keratinocytes, time course and urea concentration series (real time PCR); assay type: cell-based; conditions: for fold induction at 1000 µM / fold induction at 5000 µM / fold induction at 20000 µM / fold induction at 50000 µM / fold induction at 100000 µM / fold induction at 10000 µM: Homo sapiens, Keratinocyte; for fold induction at 20000 µM: 20mM urea
# Experimental: as §1, §2
# as §3, with “test. […]” for “test.”
smiles,measurement,setting,value
NC(N)=O [urea],relative gene expression level LL-37,"[1]; 3h, 180 min",1.9000
same,relative gene expression level LL-37,"[1]; 24h, 1440 min",1.9000
same,fold induction at 10000 µM,"[1]; 6 h, 6h",2.8
same,fold induction at 10000 µM,"[1]; 12 h, 12h",2.3
same,fold induction at 10000 µM,"[1]; 24 h, 24h",2.1
same,fold induction at 10000 µM,"[2]; 3 h, read-out: relative gene expression level Humpsor, 10mM urea, 3h, compared to untreated control cells",1.9
same,fold induction at 10000 µM,"[2]; 6 h, read-out: relative gene expression level Humpsor, 10mM urea, 6h, compared to untreated control cells",2.6
same,fold induction at 10000 µM,"[2]; 24 h, read-out: relative gene expression level Humpsor, 10mM urea, 24h, compared to untreated control cells",1.5
same,relative gene expression level Humpsor,"[2]; primary keratinocytes, 6 h, 10000 µM",3.1000
same,fold induction at 10000 µM,"[3]; 3 h, read-out: relative gene expression level HBD1, 10mM urea, 3h, compared to untreated control cells",3.1
same,fold induction at 10000 µM,"[3]; 6 h, read-out: relative gene expression level HBD1, 10mM urea, 6h, compared to untreated control cells",1.3
same,fold induction at 10000 µM,"[3]; 12 h, read-out: relative gene expression level HBD1, 10mM urea, 12h, compared to untreated control cells",1.6
same,fold induction at 10000 µM,"[3]; 24 h, read-out: relative gene expression level HBD1, 10mM urea, 24h, compared to untreated control cells",1.6
same,relative gene expression level HBD1,[3]; 3 h,3.000
same,relative gene expression level HBD1,[3]; 6 h,1.5000
same,fold induction at 10000 µM,"[4]; 3 h, read-out: relative gene expression level HBD3, 10mM urea, 3h, compared to untreated control cells",4
same,fold induction at 10000 µM,"[4]; 6 h, read-out: relative gene expression level HBD3, 10mM urea, 6h, compared to untreated control cells",2
same,fold induction at 10000 µM,"[4]; 12 h, read-out: relative gene expression level HBD3, 10mM urea, 12h, compared to untreated control cells",1.6
same,fold induction at 10000 µM,"[4]; 24 h, read-out: relative gene expression level HBD3, 10mM urea, 24h, compared to untreated control cells",3.2
same,relative gene expression level HBD3,[4]; 3 h,3.7000
same,relative gene expression level HBD3,[4]; 6 h,1.8000
same,relative gene expression level HBD3,[4]; 12 h,1.7000
same,relative gene expression level HBD3,[4]; 24 h,3.3000
same,fold induction at 10000 µM,"[5]; 3 h, read-out: relative gene expression level HBD2, 10mM urea, 3h, compared to untreated control cells",1.8
same,fold induction at 10000 µM,"[5]; 6 h, read-out: relative gene expression level HBD2, 10mM urea, 6h, compared to untreated control cells",1.1
same,fold induction at 10000 µM,"[5]; 12 h, read-out: relative gene expression level HBD2, 10mM urea, 12h, compared to untreated control cells",1.5
same,fold induction at 10000 µM,"[5]; 24 h, read-out: relative gene expression level HBD2, 10mM urea, 24h, compared to untreated control cells",1.6
same,relative gene expression level HBD2,"[5]; primary keratinocytes, 3 h, 10000 µM",1.7000
same,Expression of LL-37,"[6]; 24h, 1mM urea, 1440 min, 1000 µM",1.9000
same,Expression of LL-37,"[6]; 24h, 5mM urea, 1440 min, 5000 µM",1.7000
same,Expression of LL-37,"[6]; 24h, 10mM urea, 1440 min, 10000 µM",1.7000
same,Expression of LL-37,"[6]; 48h, 1mM urea, 2880 min, 1000 µM",3.0000
same,Expression of LL-37,"[6]; 48h, 5mM urea, 2880 min, 5000 µM",2.2000 and 1.9000
same,Expression of LL-37,"[6]; 72h, 1mM urea, 4320 min, 1000 µM",10.3000 and 11.4000
same,Expression of LL-37,"[6]; 72h, 5mM urea, 4320 min, 5000 µM",7.1000
same,Expression of LL-37,"[6]; 72h, 10mM urea, 4320 min, 10000 µM",1.7000 and 1.7300
same,Expression of LL-37,"[6]; 72h, 50mM urea, 4320 min, 50000 µM",0.9000
same,Expression of LL-37,"[6]; 96h, 1mM urea, 5760 min, 1000 µM",4.7000 and 5.5000
same,Expression of LL-37,"[6]; 96h, 5mM urea, 5760 min, 5000 µM",4.2000
same,Expression of LL-37,"[6]; 96h, 10mM urea, 5760 min, 10000 µM",3.4000
same,Expression of LL-37,"[6]; 96h, 100mM urea, 5760 min, 100000 µM",1.0000
same,fold induction at 1000 µM,"[6]; 24 h, 1mM urea",1.8
same,fold induction at 5000 µM,"[6]; 24 h, 5mM urea",1.4
same,fold induction at 20000 µM,[6]; 24 h,1.2
same,fold induction at 50000 µM,"[6]; 24 h, 50mM urea",1.3
same,fold induction at 100000 µM,"[6]; 24 h, 100mM urea",1.2
same,fold induction at 1000 µM,"[6]; 48 h, 1mM urea",3.2
same,fold induction at 5000 µM,"[6]; 48 h, 5mM urea",2.1
same,fold induction at 10000 µM,"[6]; 48 h, 10mM urea",1.5
same,fold induction at 20000 µM,[6]; 48 h,1.2
same,fold induction at 50000 µM,"[6]; 48 h, 50mM urea",1.2
same,fold induction at 100000 µM,"[6]; 48 h, 100mM urea",0.8
same,fold induction at 1000 µM,"[6]; 72 h, 1mM urea",11.2
same,fold induction at 5000 µM,"[6]; 72 h, 5mM urea",7.2
same,fold induction at 10000 µM,"[6]; 72 h, 10mM urea",1.8
same,fold induction at 20000 µM,[6]; 72 h,1.6
same,fold induction at 50000 µM,"[6]; 72 h, 50mM urea",0.8
same,fold induction at 100000 µM,"[6]; 72 h, 100mM urea",0.8
same,fold induction at 1000 µM,"[6]; 96 h, 1mM urea",5
same,fold induction at 5000 µM,"[6]; 96 h, 5mM urea",3.9
same,fold induction at 10000 µM,"[6]; 96 h, 10mM urea",3.2
same,fold induction at 20000 µM,[6]; 96 h,1.6
same,fold induction at 50000 µM,"[6]; 96 h, 50mM urea",1.3
same,fold induction at 100000 µM,"[6]; 96 h, 100mM urea",1.1
